ChEMBL document CHEMBL4765439, “Identification of the subtype-selective Sirt5 inhibitor balsalazide through systematic SAR analysis and rationalization via theoretical investigations” (Eur J Med Chem, 2020)
Each block holds one compound with its values, some of them ahead of it. Activity calls are given as the source filed them. The calls are words filed in the database; no cut-off is given here.

Experiments:
[1] = target: T1, NAD-dependent protein deacylase sirtuin-5, mitochondrial (Homo sapiens, UniProt Q9NXA8); test: Inhibition of recombinant human SIRT5 at 50 uM using flour de lys succinyl as substrate in presence of NAD+ by fluorometric assay relative to control
Target sequence in this assay (Q9NXA8 37-310 limits assumed): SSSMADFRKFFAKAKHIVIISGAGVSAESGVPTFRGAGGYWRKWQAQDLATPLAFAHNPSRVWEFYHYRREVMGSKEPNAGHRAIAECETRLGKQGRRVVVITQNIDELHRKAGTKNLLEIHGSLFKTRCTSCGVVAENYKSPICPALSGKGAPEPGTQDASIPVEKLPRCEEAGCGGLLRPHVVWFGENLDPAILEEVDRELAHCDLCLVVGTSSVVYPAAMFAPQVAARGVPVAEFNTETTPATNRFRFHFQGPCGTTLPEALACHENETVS

[2] = target: T2, NAD-dependent protein deacetylase sirtuin-1 (Homo sapiens) (UniProt Q96EB6); test: (§1) Inhibition of recombinant human SIRT1 (133 to 747 residues) expressed in Escherichia coli BL21(DE3) at 50 uM using ZMAL as substrate incubated for 4 hrs in presence of NAD+ followed by incubation with trypsin for 20 mins by trypsin-coupled assay based homogenous fluorescence analysis relative to control; settings: time 260.0 min
T2 sequence (whole entry): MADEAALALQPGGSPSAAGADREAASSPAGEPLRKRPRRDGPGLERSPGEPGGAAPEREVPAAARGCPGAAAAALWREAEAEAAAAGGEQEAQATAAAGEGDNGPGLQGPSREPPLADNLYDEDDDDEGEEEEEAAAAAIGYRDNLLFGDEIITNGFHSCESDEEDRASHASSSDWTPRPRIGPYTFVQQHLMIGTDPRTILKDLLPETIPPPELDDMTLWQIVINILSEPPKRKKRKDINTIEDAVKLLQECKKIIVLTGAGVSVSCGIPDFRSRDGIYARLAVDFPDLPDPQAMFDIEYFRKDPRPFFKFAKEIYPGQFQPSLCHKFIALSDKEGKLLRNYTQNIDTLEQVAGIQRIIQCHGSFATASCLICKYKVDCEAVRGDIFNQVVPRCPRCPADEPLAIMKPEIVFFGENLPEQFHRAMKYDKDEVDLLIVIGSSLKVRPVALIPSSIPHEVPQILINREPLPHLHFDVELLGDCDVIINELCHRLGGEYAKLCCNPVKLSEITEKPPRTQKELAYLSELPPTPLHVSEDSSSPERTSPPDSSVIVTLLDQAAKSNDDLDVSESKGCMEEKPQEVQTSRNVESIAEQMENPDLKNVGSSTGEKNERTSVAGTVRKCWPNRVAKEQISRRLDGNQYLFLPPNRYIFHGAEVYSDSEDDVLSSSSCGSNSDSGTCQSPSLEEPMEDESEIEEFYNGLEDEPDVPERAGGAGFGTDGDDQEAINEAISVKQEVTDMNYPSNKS

[3] = target: T3, NAD-dependent protein deacetylase sirtuin-2 (Homo sapiens) (UniProt Q8IXJ6); test: as §1, with “SIRT2 (25” for “SIRT1 (133”, “389” for “747”; settings: time 260.0 min
T3 sequence (whole entry): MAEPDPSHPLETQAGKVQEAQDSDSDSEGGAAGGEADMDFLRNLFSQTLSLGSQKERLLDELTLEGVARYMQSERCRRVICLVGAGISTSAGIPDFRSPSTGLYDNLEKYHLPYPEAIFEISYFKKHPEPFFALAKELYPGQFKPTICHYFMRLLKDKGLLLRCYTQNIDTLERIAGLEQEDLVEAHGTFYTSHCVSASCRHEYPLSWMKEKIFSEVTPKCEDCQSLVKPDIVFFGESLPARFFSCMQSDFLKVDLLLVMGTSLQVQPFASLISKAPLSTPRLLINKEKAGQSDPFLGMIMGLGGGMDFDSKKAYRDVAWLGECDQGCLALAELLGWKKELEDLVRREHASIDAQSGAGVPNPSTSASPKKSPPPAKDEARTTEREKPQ

[4] = target: T1, NAD-dependent protein deacylase sirtuin-5, mitochondrial; test: Competitive inhibition of recombinant human SIRT5 assessed as substrate conversion at 50 uM using ZKsA as substrate in presence of increasing concentration of NAD+ by trypsin-coupled assay
Target sequence in this assay (Q9NXA8 37-310 limits assumed): as the sequence (Q9NXA8 37-310 limits assumed) above

[5] = target: T1, NAD-dependent protein deacylase sirtuin-5, mitochondrial; test: Competitive inhibition of recombinant human SIRT5 assessed as substrate conversion at 50 uM using increasing concentration of ZKsA as substrate in presence of NAD+ by trypsin-coupled assay
Target sequence in this assay (Q9NXA8 37-310 limits assumed): as the sequence (Q9NXA8 37-310 limits assumed) above

[6] = target: T2, NAD-dependent protein deacetylase sirtuin-1 (Homo sapiens); test: as §1, with “100” for “50”; settings: time 260.0 min
[7] = target: T3, NAD-dependent protein deacetylase sirtuin-2 (Homo sapiens); test: as §1, with “SIRT2 (25” for “SIRT1 (133”, “389” for “747”, “100” for “50”; settings: time 260.0 min
[8] = target: T4, NAD-dependent protein deacetylase sirtuin-3, mitochondrial (Homo sapiens) (UniProt Q9NTG7); test: as §1, with “SIRT3 (101” for “SIRT1 (133”, “399” for “747”, “100” for “50”; settings: time 260.0 min
T4 sequence (whole entry): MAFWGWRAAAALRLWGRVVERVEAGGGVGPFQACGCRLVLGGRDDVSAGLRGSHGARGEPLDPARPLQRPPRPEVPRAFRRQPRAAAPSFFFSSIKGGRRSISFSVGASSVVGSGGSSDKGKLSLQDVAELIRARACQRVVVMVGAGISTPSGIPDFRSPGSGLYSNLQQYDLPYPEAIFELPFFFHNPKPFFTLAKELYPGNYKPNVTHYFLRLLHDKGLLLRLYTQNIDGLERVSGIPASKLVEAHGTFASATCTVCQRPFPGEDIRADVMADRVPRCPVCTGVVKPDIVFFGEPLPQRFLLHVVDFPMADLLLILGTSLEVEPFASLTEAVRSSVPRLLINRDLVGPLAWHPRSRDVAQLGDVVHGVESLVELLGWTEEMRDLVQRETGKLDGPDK

[9] = target: T1, NAD-dependent protein deacylase sirtuin-5, mitochondrial; test: Inhibition of SIRT5 (unknown origin)
Target sequence in this assay (Q9NXA8 whole entry, the tested form may be a part): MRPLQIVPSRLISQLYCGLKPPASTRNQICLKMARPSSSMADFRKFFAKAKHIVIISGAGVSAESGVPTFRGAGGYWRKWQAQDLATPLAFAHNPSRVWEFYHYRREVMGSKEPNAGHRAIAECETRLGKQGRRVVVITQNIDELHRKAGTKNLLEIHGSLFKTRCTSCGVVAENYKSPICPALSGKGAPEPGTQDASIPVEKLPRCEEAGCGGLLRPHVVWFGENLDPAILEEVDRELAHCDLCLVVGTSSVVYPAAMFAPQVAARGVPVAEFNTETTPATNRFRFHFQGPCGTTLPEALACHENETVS

[10] = target: T1, NAD-dependent protein deacylase sirtuin-5, mitochondrial; test: Inhibition of recombinant human SIRT5 using flour de lys succinyl as substrate in presence of NAD+ by fluorometric assay
Target sequence in this assay (Q9NXA8 whole entry, the tested form may be a part): as above

Compound: O=C(O)CCNC(=O)c1ccc(/N=N/c2ccccc2)cc1
inhibition [1]: 62%
inhibition [2]: < 10%
inhibition [3]: 16%
inhibition [6]: inactive
inhibition [7]: < 25%
inhibition [8]: inactive

Compound: O=C(O)CNC(=S)Nc1ccc(/N=N/c2ccc(O)c(C(=O)O)c2)cc1
inhibition [1]: 24%

Compound: Cc1cc(C(C#N)c2ccc(Cl)cc2)c(Cl)cc1NC(=O)c1cc(I)cc(I)c1O (configuration not stated) [CLOSANTEL]
IC50 [9]: 2.7 µM

Compound: CC1=C2C(=COC(C)C2C)C(O)=C(C(=O)O)C1=O (configuration not stated)
IC50 [9]: 90 µM

Compound: C[C@]12CC[C@@H]3c4ccc(O)cc4C[C@@H](CCCCCCCCC[S+]([O-])CCCC(F)(F)C(F)(F)F)[C@H]3[C@@H]1CC[C@@H]2O (some centres not stated) [FULVESTRANT]
IC50 [9]: 2.6 µM

Compound: O=C(O)CCC(=O)Nc1ccc(/N=N/c2ccc(O)c(C(=O)O)c2)cc1
inhibition [1]: 26%

Compound: NC(=O)c1ccc(/N=N/c2ccc(O)c(C(=O)O)c2)cc1
inhibition [1]: 32%

Compound: NC(=O)c1cccnc1
inhibition [2]: 21%
inhibition [3]: 65%

Compound: O=C(O)CCNC(=O)c1ccc(/N=N/c2ccc(O)cc2)cc1
inhibition [1]: 73%
inhibition [2]: < 10%
inhibition [3]: 26%
inhibition [4]: inactive
inhibition [5]: inactive

Compound: O=C(O)CCNC(=O)c1ccc(/N=N/c2ccc(O)c(C(=O)O)c2)cc1 [BALSALAZIDE]
IC50 [10]: 5.3 µM
inhibition [1]: 83%
inhibition [2]: < 10%
inhibition [3]: 11%
inhibition [4]: inactive
inhibition [5]: inactive
IC50 [9]: 3.9 µM

Compound: Cc1ccc(C(=O)Nc2ccc(S(=O)(=O)O)c3cc(S(=O)(=O)O)cc(S(=O)(=O)O)c23)cc1NC(=O)c1cccc(NC(=O)Nc2cccc(C(=O)Nc3cc(C(=O)Nc4ccc(S(=O)(=O)O)c5cc(S(=O)(=O)O)cc(S(=O)(=O)O)c45)ccc3C)c2)c1
inhibition [1]: 53%
inhibition [2]: 95%

Further lines, results first:

inhibition [1]: 31%
Compound: CCCNC(=O)c1ccc(/N=N/c2ccc(O)c(C(=O)O)c2)cc1

inhibition [1]: 27%
inhibition [2]: < 10%
inhibition [3]: 19%
inhibition [4]: inactive
inhibition [5]: inactive
Compound: O=C(O)CCNCc1ccc(/N=N/c2ccc(O)c(C(=O)O)c2)cc1

inhibition [1]: 32%
Compound: O=C(O)CCCCc1ccc(/N=N/c2ccc(O)c(C(=O)O)c2)cc1

inhibition [1]: 27%
Compound: O=C(O)c1ccc(/N=N/c2ccc(O)c(C(=O)O)c2)cc1

IC50 [9]: 3.6 µM
Compound: C=C1c2cccc(O)c2C(=O)C2=C(O)[C@]3(O)C(=O)C(C(N)=O)=C(O)[C@@H](N(C)C)[C@@H]3[C@@H](O)[C@H]12 [METHACYCLINE]

inhibition [1]: 33%
Compound: O=C(O)CCOCc1ccc(/N=N/c2ccc(O)c(C(=O)O)c2)cc1

inhibition [1]: 63%
inhibition [2]: < 10%
inhibition [3]: 21%
inhibition [6]: inactive
inhibition [7]: < 25%
inhibition [8]: inactive
Compound: O=C(O)CCNC(=O)c1ccc(/N=N/c2cccc(C(=O)O)c2)cc1

IC50 [9]: 1.6 µM
Compound: CC(C)(Sc1cc(C(C)(C)C)c(O)c(C(C)(C)C)c1)Sc1cc(C(C)(C)C)c(O)c(C(C)(C)C)c1 [PROBUCOL]

inhibition [1]: 54%
Compound: O=C(O)CCCC(=O)c1ccc(/N=N/c2ccc(O)c(C(=O)O)c2)cc1

inhibition [1]: 39%
Compound: O=C(O)CCCC(O)c1ccc(/N=N/c2ccc(O)c(C(=O)O)c2)cc1 (configuration not stated)
